Test results taken from patent publication US10770169B2, “Method of providing a treatment to a subject based on a dynamic pathway map” (THE REGENTS OF THE UNIVERSITY OF CALIFORNIA, priority 2010, dated 2020).
Like-named read-outs stand apart in the source and are kept apart here.

How the values were obtained:
[1] = system: panel of 55 breast cancer cell lines; assay: Cell growth inhibition assay (Cell Titer Glo, 72 h, 9 doses; GI50, TGI, LC50); assay type: cell-based, human; details: Homo sapiens, read-out: GI50 (converted)
[2] = system: luminal, basal, claudin-low and ERBB2AMP breast cancer cell lines; assay: Associations of clinically relevant subtypes and response (non-parametric ANOVA or t-test on GI50 ranks); assay type: cell-based, human; details: Table 6; most sensitive subtype, FDR p<0.20
How it was run: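 GI50 values were compared between cell-line subtype groups by non-parametric ANOVA or t-test on ranks. P-values from three test sets were combined and FDR-corrected. Significant three-group effects were followed by post-hoc comparison of each group against all others, and FDR p<0.20 counted as significant.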

Which results are given for `C#Cc1cccc(Nc2ncnc3cc(OCCOC)c(OCCOC)cc23)c1` [Erlotinib]?
GI50 ([1]; AU565, AU565 cell line, censored GI50 values): 13.2 µM; GI50 ([1]; AU565, cell line AU565): 13.2 µM; GI50 ([1]; BT-20, BT20 cell line, censored GI50 values): 2 µM; GI50 ([1]; BT-20, cell line BT20): 2 µM; GI50 ([1]; BT-474, BT474 cell line, censored GI50 values): 10.5 µM; GI50 ([1]; BT-474, cell line BT474): 10.5 µM; GI50 ([1]; BT-483, cell line BT483): 66.1 µM; GI50 ([1]; BT-549, BT549 cell line, censored GI50 values): 41.7 µM; GI50 ([1]; BT-549, cell line BT549): 41.7 µM; GI50 ([1]; CAMA-1, cell line CAMA1): 66.1 µM; GI50 ([1]; HCC38, cell line HCC38): 66.1 µM; GI50 ([1]; HCC70, HCC70 cell line, censored GI50 values): 1.74 µM; GI50 ([1]; HCC70, cell line HCC70): 1.74 µM; GI50 ([1]; HCC202, HCC202 cell line, censored GI50 values): 37.2 µM; GI50 ([1]; HCC202, cell line HCC202): 37.2 µM; GI50 ([1]; HCC1143, cell line HCC1143): 57.5 µM; GI50 ([1]; HCC1187, HCC1187 cell line, censored GI50 values): 7.59 µM; GI50 ([1]; HCC1187, cell line HCC1187): 7.59 µM; GI50 ([1]; HCC1395, HCC1395 cell line, censored GI50 values): 39.8 µM; GI50 ([1]; HCC1395, cell line HCC1395): 39.8 µM; GI50 ([1]; HCC1419, HCC1419 cell line, censored GI50 values): 10.7 µM; GI50 ([1]; HCC1419, cell line HCC1419): 10.7 µM; GI50 ([1]; HCC1428, HCC1428 cell line, censored GI50 values): 17.8 µM; GI50 ([1]; HCC1428, cell line HCC1428): 17.8 µM; GI50 ([1]; HCC1500, HCC1500 cell line, censored GI50 values): 6.46 µM; GI50 ([1]; HCC1500, cell line HCC1500): 6.46 µM; GI50 ([1]; HCC1806, HCC1806 cell line, censored GI50 values): 4.27 µM; GI50 ([1]; HCC1806, cell line HCC1806): 4.27 µM; GI50 ([1]; HCC1937, HCC1937 cell line, censored GI50 values): 38.9 µM; GI50 ([1]; HCC1937, cell line HCC1937): 38.9 µM; GI50 ([1]; HCC1954, HCC1954 cell line, censored GI50 values): 3.09 µM; GI50 ([1]; HCC1954, cell line HCC1954): 3.09 µM; GI50 ([1]; HCC2185 cell line, censored GI50 values): 23.4 µM; GI50 ([1]; HCC3153 cell line, censored GI50 values): 31.6 µM; GI50 ([1]; LY2 cell line, censored GI50 values): 33.1 µM; GI50 ([1]; MCF7, cell line MCF7): 66.1 µM; GI50 ([1]; MDA-MB-157, cell line MDAMB157): 50.1 µM; GI50 ([1]; MDA-MB-175-VII, MDAMB175VII cell line, censored GI50 values): 3.09 µM; GI50 ([1]; MDA-MB-231, MDAMB231 cell line, censored GI50 values): 39.8 µM; GI50 ([1]; MDA-MB-231, cell line MDAMB231): 39.8 µM; GI50 ([1]; MDA-MB-361, cell line MDAMB361): 64.6 µM; GI50 ([1]; MDA-MB-436, cell line MDAMB436): 55 µM; GI50 ([1]; MDA-MB-453, cell line MDAMB453): 44.7 µM; GI50 ([1]; MDA-MB-468, MDAMB468 cell line, censored GI50 values): 21.4 µM; GI50 ([1]; MDA-MB-468, cell line MDAMB468): 21.4 µM; GI50 ([1]; SK-BR-3, SKBR3 cell line, censored GI50 values): 15.8 µM; GI50 ([1]; SK-BR-3, cell line SKBR3): 15.8 µM; GI50 ([1]; SUM52PE, SUM52PE cell line, censored GI50 values): 31.6 µM; GI50 ([1]; SUM52PE, cell line SUM52PE): 31.6 µM; GI50 ([1]; SUM149PT, SUM149PT cell line, censored GI50 values): 2 µM; GI50 ([1]; SUM149PT, cell line SUM149PT): 2 µM; GI50 ([1]; SUM185PE, cell line SUM185PE): 66.1 µM; GI50 ([1]; SUM225CWN, SUM225CWN cell line, censored GI50 values): 7.08 µM; GI50 ([1]; SUM225CWN, cell line SUM225CWN): 7.08 µM; GI50 ([1]; SUM1315MO2, SUM1315MO2 cell line, censored GI50 values): 7.41 µM; GI50 ([1]; SUM-159-PT, SUM159PT cell line, censored GI50 values): 11.7 µM; GI50 ([1]; SUM-159-PT, cell line SUM159PT): 11.7 µM; GI50 ([1]; T47D, cell line T47D): 50.1 µM; GI50 ([1]; UACC-812, UACC812 cell line, censored GI50 values): 12.3 µM; GI50 ([1]; UACC-812, cell line UACC812): 12.3 µM; GI50 ([1]; UACC-893, UACC893 cell line, censored GI50 values): 12.3 µM; GI50 ([1]; UACC-893, cell line UACC893): 12.3 µM; GI50 ([1]; ZR-75-1, cell line ZR751): 66.1 µM; GI50 ([1]; ZR-75B, cell line ZR75B): 66.1 µM; GI50 ([1]; cell line 600MPE): 52.5 µM; GI50 ([1]; cell line HCC2185): 23.4 µM; GI50 ([1]; cell line HCC3153): 31.6 µM; GI50 ([1]; cell line LY2): 33.1 µM; GI50 ([1]; cell line MDAMB134V): 66.1 µM; GI50 ([1]; cell line MDAMB175V): 3.09 µM; GI50 ([1]; cell line SUM1315MO): 7.41 µM; Subtype specificity [2]: Basal
